Assays:
[1] = DRUGMATRIX: Sodium/nucleoside co-transporter radioligand binding (ligand: nitrobenzylthioinosine); type: cell membranes, Cavia porcellus, Dunkin-Hartley, Cerebral cortex, Membrane; conditions: Not Active = under 50% inhibition at 10 µM
[2] = target: T1, Alpha-2A adrenergic receptor (Homo sapiens, UniProt P08913); type: cell membranes, Sf9, Membrane; conditions: sf9; note: in other assays of this panel Not Active means under 50% inhibition at 10 µM
T1 sequence (P08913 whole entry): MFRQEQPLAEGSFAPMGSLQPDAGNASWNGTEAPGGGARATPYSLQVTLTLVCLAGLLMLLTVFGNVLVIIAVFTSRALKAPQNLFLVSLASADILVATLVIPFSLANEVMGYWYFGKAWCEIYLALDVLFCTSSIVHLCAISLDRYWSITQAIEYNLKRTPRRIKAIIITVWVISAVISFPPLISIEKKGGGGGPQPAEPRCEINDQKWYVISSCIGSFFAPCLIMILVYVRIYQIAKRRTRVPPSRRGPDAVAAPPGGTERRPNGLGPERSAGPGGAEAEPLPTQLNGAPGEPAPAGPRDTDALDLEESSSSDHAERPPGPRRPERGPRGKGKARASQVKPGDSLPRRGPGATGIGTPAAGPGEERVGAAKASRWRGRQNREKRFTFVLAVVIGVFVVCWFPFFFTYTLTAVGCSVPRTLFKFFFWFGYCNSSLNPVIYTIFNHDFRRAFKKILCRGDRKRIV

[3] = target: T2, Polyunsaturated fatty acid lipoxygenase ALOX15 (Oryctolagus cuniculus, UniProt P12530); experiment: biochemical; type: tissue-based, Reticulocytes;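 note: inhibition of 15-lipoxygenase enzyme activity measured with linoleic acid as the substrate; in other assays of this panel Not Active means under 50% inhibition at 10 µM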
T2 sequence (P12530 whole entry): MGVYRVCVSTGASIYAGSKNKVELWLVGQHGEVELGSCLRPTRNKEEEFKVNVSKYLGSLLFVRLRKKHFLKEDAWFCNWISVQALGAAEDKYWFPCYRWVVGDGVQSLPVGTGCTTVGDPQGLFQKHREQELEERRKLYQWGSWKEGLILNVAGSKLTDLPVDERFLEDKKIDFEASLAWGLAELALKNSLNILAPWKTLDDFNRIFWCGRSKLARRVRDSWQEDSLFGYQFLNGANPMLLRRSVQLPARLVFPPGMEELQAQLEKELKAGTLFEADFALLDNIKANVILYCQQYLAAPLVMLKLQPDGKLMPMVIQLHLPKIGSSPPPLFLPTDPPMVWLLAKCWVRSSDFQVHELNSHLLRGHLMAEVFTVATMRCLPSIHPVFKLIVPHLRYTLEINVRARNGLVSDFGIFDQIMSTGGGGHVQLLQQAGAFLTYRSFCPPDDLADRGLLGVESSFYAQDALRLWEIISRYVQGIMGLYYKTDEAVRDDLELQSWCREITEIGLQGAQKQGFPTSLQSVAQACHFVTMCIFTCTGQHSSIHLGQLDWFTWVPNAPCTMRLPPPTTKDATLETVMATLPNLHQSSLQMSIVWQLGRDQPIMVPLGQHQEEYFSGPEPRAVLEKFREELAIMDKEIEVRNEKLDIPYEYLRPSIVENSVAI

[4] = target: Delta-type opioid receptor (Homo sapiens, UniProt P41143); type: cell membranes, HEK293, Membrane; conditions: hek293; note: in other assays of this panel Not Active means under 50% inhibition at 10 µM
Chain of Delta-type opioid receptor (P41143 whole entry): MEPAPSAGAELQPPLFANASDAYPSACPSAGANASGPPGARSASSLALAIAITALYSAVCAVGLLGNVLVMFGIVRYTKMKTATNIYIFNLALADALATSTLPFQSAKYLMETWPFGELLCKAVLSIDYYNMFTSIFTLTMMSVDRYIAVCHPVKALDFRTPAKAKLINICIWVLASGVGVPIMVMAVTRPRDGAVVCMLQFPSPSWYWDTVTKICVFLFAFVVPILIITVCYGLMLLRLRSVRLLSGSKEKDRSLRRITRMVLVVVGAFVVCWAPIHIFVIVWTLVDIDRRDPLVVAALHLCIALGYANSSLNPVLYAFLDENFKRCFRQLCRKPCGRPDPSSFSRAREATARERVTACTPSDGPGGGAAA

[5] = target: Protein kinase C alpha type (Homo sapiens, UniProt P17252); type: cell-based; conditions: sf9;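 note: inhibition of PKCalpha kinase activity measured in an enzyme assay with histone as the phosphorylation substrate; in other assays of this panel Not Active means under 50% inhibition at 10 µM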
[6] = target: 5-hydroxytryptamine receptor 1B (Rattus norvegicus, UniProt P28564); type: cell membranes, Wistar, Cerebral cortex, Membrane; note: in other assays of this panel Not Active means under 50% inhibition at 10 µM
Chain of 5-hydroxytryptamine receptor 1B (P28564 whole entry): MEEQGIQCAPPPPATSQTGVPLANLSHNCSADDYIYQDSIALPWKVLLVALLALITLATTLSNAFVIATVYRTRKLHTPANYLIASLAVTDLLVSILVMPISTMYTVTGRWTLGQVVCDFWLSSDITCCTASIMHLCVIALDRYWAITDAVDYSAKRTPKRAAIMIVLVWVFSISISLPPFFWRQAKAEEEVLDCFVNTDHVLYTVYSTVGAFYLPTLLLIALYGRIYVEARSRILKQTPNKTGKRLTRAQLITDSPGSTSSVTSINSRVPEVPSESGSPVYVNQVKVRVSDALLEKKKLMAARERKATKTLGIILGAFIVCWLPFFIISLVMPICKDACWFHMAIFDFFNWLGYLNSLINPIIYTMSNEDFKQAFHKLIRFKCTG

Molecule | IC50 [1] | Ki [1] | IC50 [2] | IC50 ([3]; reticulocytes) | IC50 [4] | IC50 [5] | IC50 [6] | IC50 ([3]; read-out: IC50) [µM] | IC50 ([2]; read-out: IC50) [µM] | Ki ([2]; read-out: Ki) [µM] | Ki ([3]; reticulocytes) | Ki [4] | Ki [5] | Ki [6]
CC(=O)Nc1cccc(O)c1 [METACETAMOL] | Not Active | Not Active | Not Active | Not Active | Not Active | Not Active | Not Active | – | – | – | – | – | – | –
Cc1ncc([N+](=O)[O-])n1CCO [METRONIDAZOLE] | Not Active | Not Active | Not Active | Not Active | Not Active | Not Active | Not Active | – | – | – | – | – | – | –
CC(C)(C(=O)c1cccnc1)c1cccnc1 [METYRAPONE] | Not Active | Not Active | Not Active | Not Active | Not Active | Not Active | Not Active | – | – | – | – | – | – | –
Oc1ccc(OCc2ccccc2)cc1 [MONOBENZONE] | Not Active | Not Active | Not Active | – | Not Active | Not Active | Not Active | 4.89 | – | – | – | – | – | –
CC(C)(Oc1ccc(C2CCCc3ccccc32)cc1)C(=O)O (stereo not drawn) [NAFENOPIN] | Not Active | Not Active | Not Active | Not Active | Not Active | Not Active | Not Active | – | – | – | – | – | – | –
COc1ccc2cc([C@H](C)C(=O)O)ccc2c1 [NAPROXEN] | Not Active | Not Active | Not Active | Not Active | Not Active | Not Active | Not Active | – | – | – | – | – | – | –
CC(C)[C@H]1CC[C@H](C(=O)N[C@H](Cc2ccccc2)C(=O)O)CC1 [NATEGLINIDE] | Not Active | Not Active | Not Active | Not Active | Not Active | Not Active | Not Active | – | – | – | – | – | – | –
CCN[C@@H]1C[C@H](N)[C@@H](O[C@H]2OC(CN)=CC[C@H]2N)[C@H](O)[C@H]1O[C@H]1OC[C@](C)(O)[C@H](NC)[C@H]1O [NETILMICIN] | Not Active | Not Active | Not Active | Not Active | Not Active | Not Active | Not Active | – | – | – | – | – | – | –
COC(=O)C1=C(C)NC(C)=C(C(=O)OCC(C)C)C1c1ccccc1[N+](=O)[O-] (stereo not drawn) [NISOLDIPINE] | Not Active | Not Active | Not Active | Not Active | Not Active | Not Active | Not Active | – | – | – | – | – | – | –
CCOC(=O)C1=C(C)NC(C)=C(C(=O)OC)C1c1cccc([N+](=O)[O-])c1 (stereo not drawn) [NITRENDIPINE] | Not Active | Not Active | Not Active | Not Active | Not Active | Not Active | Not Active | – | – | – | – | – | – | –
C#C[C@]1(OC(C)=O)CC[C@H]2[C@@H]3CCC4=CC(=O)CC[C@@H]4[C@H]3CC[C@@]21C [NORETHINDRONE ACETATE] | Not Active | Not Active | Not Active | Not Active | Not Active | Not Active | Not Active | – | – | – | – | – | – | –
COc1ccc2[nH]c([S+]([O-])Cc3ncc(C)c(OC)c3C)nc2c1 (stereo not drawn) [OMEPRAZOLE] | Not Active | Not Active | Not Active | Not Active | Not Active | Not Active | Not Active | – | – | – | – | – | – | –
Cc1nccn1CC1CCc2c(c3ccccc3n2C)C1=O (stereo not drawn) [ONDANSETRON] | Not Active | Not Active | Not Active | Not Active | Not Active | Not Active | Not Active | – | – | – | – | – | – | –
CCn1cc(C(=O)O)c(=O)c2cc(F)c(N3CCN(C)CC3)cc21 [PEFLOXACIN] | Not Active | Not Active | Not Active | Not Active | Not Active | Not Active | Not Active | – | – | – | – | – | – | –
CCCCOc1ccc(OCCCN2CCOCC2)cc1 [PRAMOXINE] | Not Active | Not Active | Not Active | Not Active | Not Active | Not Active | Not Active | – | – | – | – | – | – | –
O=C(C1CCCCC1)N1CC(=O)N2CCc3ccccc3C2C1 (stereo not drawn) [PRAZIQUANTEL] | Not Active | Not Active | Not Active | Not Active | Not Active | Not Active | Not Active | – | – | – | – | – | – | –
CCN(CC)CCOC(=O)c1ccc(N)cc1 [PROCAINE] | Not Active | Not Active | Not Active | Not Active | Not Active | Not Active | Not Active | – | – | – | – | – | – | –
CCCN(CCC)C(=O)C(CCC(=O)O)NC(=O)c1ccccc1 (stereo not drawn) [PROGLUMIDE] | Not Active | Not Active | Not Active | Not Active | Not Active | Not Active | Not Active | – | – | – | – | – | – | –
NC(=O)c1cnccn1 [PYRAZINAMIDE] | Not Active | Not Active | Not Active | Not Active | Not Active | Not Active | Not Active | – | – | – | – | – | – | –
OC(CCN1CCCCC1)(c1ccccc1)C1CCCCC1 (stereo not drawn) [TRIHEXYPHENIDYL] | Not Active | Not Active | Not Active | Not Active | Not Active | Not Active | Not Active | – | – | – | – | – | – | –
Cc1cc2cc3c(C)cc(=O)oc3c(C)c2o1 [TRIOXSALEN] | Not Active | Not Active | Not Active | Not Active | Not Active | Not Active | Not Active | – | – | – | – | – | – | –
CCCC(CCC)C(=O)O [VALPROIC ACID] | Not Active | Not Active | Not Active | Not Active | Not Active | Not Active | Not Active | – | – | – | – | – | – | –
CCC1=C[C@@H]2CN(C1)Cc1c([nH]c3ccccc13)[C@@](C(=O)OC)(c1cc3c(cc1OC)N(C)[C@H]1[C@@](O)(C(=O)OC)[C@H](OC(C)=O)[C@]4(CC)C=CCN5CC[C@]31[C@@H]54)C2 [VINORELBINE] | Not Active | Not Active | Not Active | Not Active | Not Active | Not Active | Not Active | – | – | – | – | – | – | –
CADMIUM DICHLORIDE | Not Active | Not Active | – | Not Active | Not Active | Not Active | Not Active | – | 6.92 | 2.59 | Not Active | Not Active | Not Active | Not Active

Reference: ChEMBL document CHEMBL1909046, “DrugMatrix in vitro pharmacology data”
